Source: US11033539B2, “Compounds of formulas (VII), (VIII), (IX), (XI), (XII), (XIII), and (XIV) as muscarinic receptor 4(M4) antagonists for treating neurological diseases” (Neurocrine Biosciences, Inc., priority 2015, dated 2021)

Target: human M4 receptor (Homo sapiens (Human), UniProt P08173)
Test: Radioligand (tritiated N-methylscopolamine) binding assay, M4
Details: Ki against the M4 receptor; membranes from CHO cells expressing human M4; tritiated N-methylscopolamine 1.5 nM; read-out: Ki
Procedure: Binding affinity (Ki) of compounds was measured by inhibition of radioligand binding to membranes from CHO cells expressing human M1, M2, M3, M4 and M5 receptors. Membranes were prepared by nitrogen cavitation and differential centrifugation as previously described (Hoare et al., Mol. Pharmacol. 2003 March; 63(3): 751-65). The radioligand employed was tritiated N-methylscopolamine, used at a concentration of 1.5 nM. A dose-response of twelve concentrations of compound was used, ranging from 10 μM to […]. The assay buffer was 50 mM HEPES, 100 mM NaCl, 5 mM MgCl2, 1 mM ethylenediaminetetraacetic acid, pH-adjusted to pH 7.4. Membranes, radioligand and compound were incubated together for 90 minutes at 37° C., in a total volume of 150 μl in a 96-well plate. Receptor-bound radioligand was then collected by harvesting the assay over glass fiber filters pretreated with polyethylenimine to trap the cell membranes, using rapid vacuum filtration. Harvesting and radioactivity counting was conducted as previously described (see, e.g., Hoare et al., Mol. Pharmacol. 2003 63(3):751-65); Erratum at Mol. Pharmacol. 2005 July; 68(1): 260).

Sequence of human M4 receptor (P08173 whole entry): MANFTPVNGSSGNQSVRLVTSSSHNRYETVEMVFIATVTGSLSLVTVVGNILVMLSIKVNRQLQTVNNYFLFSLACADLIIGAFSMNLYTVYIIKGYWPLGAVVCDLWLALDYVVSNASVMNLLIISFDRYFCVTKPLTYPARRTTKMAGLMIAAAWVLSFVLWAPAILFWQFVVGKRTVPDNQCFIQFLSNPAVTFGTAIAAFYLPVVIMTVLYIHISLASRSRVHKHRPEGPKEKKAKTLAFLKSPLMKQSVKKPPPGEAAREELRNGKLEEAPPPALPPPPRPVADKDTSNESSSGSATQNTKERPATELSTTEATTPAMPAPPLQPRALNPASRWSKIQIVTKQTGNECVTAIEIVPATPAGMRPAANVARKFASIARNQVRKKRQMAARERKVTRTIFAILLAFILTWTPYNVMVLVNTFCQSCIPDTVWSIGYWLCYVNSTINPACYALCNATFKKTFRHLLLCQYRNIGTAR

Compound `C[C@@H]1CN(c2ncc(C(F)(F)F)cn2)CCN1C(=O)NCCC1CCN(Cc2ccccc2F)CC1` [6-38, (2R)-N-(2-{1-[(2-fluorophenyl)methyl]piperidin-4-yl}ethyl)-2-methyl-4-[5-(trifluoromethyl)pyrimidin-2-yl]piperazine-1-carboxamide] has a Ki of 10 to 100 nM.
Work on `C[C@@H]1CN(c2cc(F)c(F)c(F)c2)CCN1C(=O)NCCC1CCN(Cc2cccc(F)c2F)CC1` [6-17, (2R)-N-(2-{1-[(2,3-difluorophenyl)methyl]piperidin-4-yl}ethyl)-2-methyl-4-(3,4,5-trifluorophenyl)piperazine-1-carboxamide] yielded a Ki of 10 to 100 nM.
`N#Cc1cccc(N2CCN(C(=O)OCCC3CCN(Cc4ccccc4)CC3)CC2)c1` [12-2, 2-(1-benzylpiperidin-4-yl)ethyl 4-(3-cyanophenyl)piperazine-1-carboxylate] showed a Ki of 100 to 1000 nM.
For `C[C@@H]1CN(c2ncc(C(=O)NC3CCC3)cn2)C[C@H](C)N1C(=O)NCCC1CCN(Cc2ccccc2)CC1` [27-6], the Ki was 100 to 1000 nM.
In the case of `C[C@@H]1CN(c2ncc(Cl)c(Cl)n2)CCN1C(=O)NCCC1CCN(Cc2ccccc2)CC1` [5-3, (2R)-N-[2-(1-benzylpiperidin-4-yl)ethyl]-4-(4,5-dichloropyrimidin-2-yl)-2-methylpiperazine-1-carboxamide], the Ki is reported as 100 to 1000 nM.
`CC1(C(=O)NCCC2CCN(Cc3ccccc3)CC2)CCN(c2cccc(OC(F)(F)F)c2)CC1` [10-25, N-[2-(1-benzylpiperidin-4-yl)ethyl]-4-methyl-1-[3-(trifluoromethoxy)phenyl]piperidine-4-carboxamide] gave a Ki of 10 to 100 nM.
`CN(CCC1CC[N+](C)(Cc2ccccc2)CC1)C(=O)C1CCN(c2ccc(OC(F)(F)F)cc2)CC1` (stereo not drawn) [9-42, 1-benzyl-1-methyl-4-[2-(N-methyl-1-{1-[4-(trifluoromethoxy)phenyl]piperidin-4-yl}formamido)ethyl]piperidin-1-ium] showed a Ki of 100 to 1000 nM.
In the case of `O=C(NCCC1CCN(Cc2ccccc2)CC1)[C@H]1CCN(c2cccc(OC(F)(F)F)c2)C1` [10-52, (3S)-N-[2-(1-benzylpiperidin-4-yl)ethyl]-1-[3-(trifluoromethoxy)phenyl]pyrrolidine-3-carboxamide], the Ki is reported as 100 to 1000 nM.
In the case of `COC(=O)C(c1ccccc1)N1CCC(CCNC(=O)C2CCN(c3ccc(OC(F)(F)F)cc3)CC2)CC1` (stereo not drawn) [11-6, methyl 2-phenyl-2-{4-[2-({l-[4-(trifluoromethoxy)phenyl]piperidin-4-yl}formamido)ethyl]piperidin-1-yl}acetate], the Ki is reported as 10 to 100 nM.
In the case of `O=C(NCCC1CCN(Cc2ccccc2)CC1)C1CCN(c2ccc(OC(F)(F)F)nc2)CC1` [10-34, N-[2-(1-benzylpiperidin-4-yl)ethyl]-1-[6-(trifluoromethoxy)pyridin-3-yl]piperidine-4-carboxamide], the Ki is reported as 10 to 100 nM.
`CC(=O)c1ccc(N2CCN(C(=O)NCCC3CCN(Cc4ccccc4)CC3)CC2)cc1` [8-36, 4-(4-acetylphenyl)-N-[2-(1-benzylpiperidin-4-yl)ethyl]piperazine-1-carboxamide] showed a Ki of 100 to 1000 nM.
In the case of `CN(CCNC(=O)C1CCN(c2ccc(OC(F)(F)F)c(F)c2)CC1)C1CN(Cc2ccccc2)CC1CO` (stereo not drawn) [9-35, N-(2-{[1-benzyl-4-(hydroxymethyl)pyrrolidin-3-yl](methyl)amino}ethyl)-1-[3-fluoro-4-(trifluoromethoxy)phenyl]piperidine-4-carboxamide], the Ki is reported as 100 to 1000 nM.
`O=C(NC1CCN(c2ccc(OC(F)(F)F)cc2)CC1)OCCC1CCN(Cc2ccccc2)CC1` [12-11, 2-(1-benzylpiperidin-4-yl)ethyl N-{1-[4-(trifluoromethoxy)phenyl]piperidin-4-yl}carbamate] showed a Ki of 10 to 100 nM.
Compound `COC(=O)c1ccc(-c2ccc(C(=O)NCCC3CCN(Cc4ccccc4)CC3)cc2)cc1` [9-14, methyl 4-(4-{[2-(1-benzylpiperidin-4-yl)ethyl]carbamoyl}phenyl)benzoate] has a Ki of 10 to 100 nM.
For `O=C(NCCC1CCN(Cc2ccccc2)CC1)N1CCN(c2cccc(C(F)(F)F)c2)CC1` [8-17, N-[2-(1-benzylpiperidin-4-yl)ethyl]-4-[3-(trifluoromethyl)phenyl]piperazine-1-carboxamide], the Ki was 10 to 100 nM.
`O=C(NCCC1CCN(Cc2ccccc2)CC1)C1CCN(c2ccccc2F)CC1` [10-59, N-[2-(1-benzylpiperidin-4-yl)ethyl]-1-(2-fluorophenyl)piperidine-4-carboxamide] gave a Ki of 100 to 1000 nM.
Compound `COc1ccc(N2CCC(C(=O)NCCC3CCN(Cc4ccccc4)CC3)CC2)cc1` [10-60, N-[2-(1-benzylpiperidin-4-yl)ethyl]-1-(4-methoxyphenyl)piperidine-4-carboxamide] has a Ki of 100 to 1000 nM.
`CC1CN(c2ccccc2OC(F)(F)F)CCC1C(=O)NCCC1CCN(Cc2ccccc2)CC1` (stereo not drawn) [10-16, N-[2-(1-benzylpiperidin-4-yl)ethyl]-3-methyl-1-[2-(trifluoromethoxy)phenyl]piperidine-4-carboxamide] was tested, and the Ki was 100 to 1000 nM.
For `O=C(NCCC1CCN(Cc2ccccc2)CC1)N1CCC(O)(c2ccc(Cl)cc2)CC1` [8-23, N-[2-(1-benzylpiperidin-4-yl)ethyl]-4-(4-chlorophenyl)-4-hydroxypiperidine-1-carboxamide], the Ki was 100 to 1000 nM.
With `O=C(NCCC1CCN(Cc2ccccc2)CC1)N1CCN(c2cccc(OC(F)(F)F)c2)CC1` [8-2, N-[2-(1-benzylpiperidin-4-yl)ethyl]-4-[3-(trifluoromethoxy)phenyl]piperazine-1-carboxamide] the Ki was 10 to 100 nM.
Compound `Cc1cc(C(=O)NC(C)C)nc(N2CCN(C(=O)NCCC3CCN(Cc4ccccc4)CC3)[C@H](C)C2)n1` [27-13] has a Ki of 100 to 1000 nM.
For `C[C@@H]1CN(c2ncc(C#N)c(NCC(F)(F)F)n2)CCN1C(=O)NCCC1CCN(Cc2ccccc2)CC1` [5-7, (2R)-N-[2-(1-benzylpiperidin-4-yl)ethyl]-4-{5-cyano-4-[(2,2,2-trifluoroethyl)amino]pyrimidin-2-yl}-2-methylpiperazine-1-carboxamide], the Ki was 10 to 100 nM.
In the case of `CN(CCNC(=O)C1CCN(c2ccc(OC(F)(F)F)cc2)CC1)[C@H]1CCN(Cc2ccccc2)C1` [9-17, N-(2-{[(3S)-1-benzylpyrrolidin-3-yl](methyl)amino}ethyl)-1-[4-(trifluoromethoxy)phenyl]piperidine-4-carboxamide], the Ki is reported as 10 to 100 nM.
“4-(benzyloxy)-N-{2-[1-(pyridin-3-ylmethyl)piperidin-4-yl]ethyl}benzamide [11-20]” showed a Ki of 100 to 1000 nM.
With `CC(C)CCN1CCC(CCNC(=O)N2[C@H](C)CN(c3ncc(C#N)cn3)C[C@@H]2C)CC1` [21-8] the Ki was 100 to 1000 nM.
In the case of `COc1cc(N2CCN(C(=O)NCCC3CCN(Cc4ccccc4)CC3)[C@H](C)C2)ccn1` [22-16], the Ki is reported as 10 to 100 nM.
Work on `C[C@@H]1CN(c2cc(F)c(F)c(F)c2)CCN1C(=O)NCCC1CCN(Cc2ccc(C#N)cc2)CC1` [6-2, (2R)-N-(2-{1-[(4-cyanophenyl)methyl]piperidin-4-yl}ethyl)-2-methyl-4-(3,4,5-trifluorophenyl)piperazine-1-carboxamide] yielded a Ki of 100 to 1000 nM.
With `O=C(NCC[C@H]1CCN(Cc2ccccc2)C1)C1CCN(c2ccc(OC(F)(F)F)cc2)CC1` [9-49, N-{2-[(3S)-1-benzylpyrrolidin-3-yl]ethyl}-1-[4-(trifluoromethoxy)phenyl]piperidine-4-carboxamide] the Ki was 100 to 1000 nM.
With `O=C(CCC1CCN(Cc2ccccc2)CC1)NC1CCN(c2ccc(OC(F)(F)F)cc2)CC1` [9-36, 3-(1-benzylpiperidin-4-yl)-N-{1-[4-(trifluoromethoxy)phenyl]piperidin-4-yl}propanamide] the Ki was 100 to 1000 nM.
`C[C@@H]1CN(c2cc(F)c(F)c(F)c2)CCN1C(=O)NCC[C@H]1CCN(Cc2ccccc2)C1` [7-5, (2R)-N-{2-[(3S)-1-benzylpyrrolidin-3-yl]ethyl}-2-methyl-4-(3,4,5-trifluorophenyl)piperazine-1-carboxamide] was tested, and the Ki was 100 to 1000 nM.
With `N#Cc1cccc(N2CCC(C(=O)NCCC3CCN(Cc4ccccc4)CC3)CC2)c1` [10-77, N-[2-(1-benzylpiperidin-4-yl)ethyl]-1-(3-cyanophenyl)piperidine-4-carboxamide] the Ki was 10 to 100 nM.
Work on `C[C@@H]1CN(c2cnc(C(F)(F)F)nc2)C[C@H](C)N1C(=O)NCCC1CCN(CCc2ccccc2)CC1` [6-56, (2R,6S)-2,6-dimethyl-N-{2-[1-(2-phenylethyl)piperidin-4-yl]ethyl}-4-[2-(trifluoromethyl)pyrimidin-5-yl]piperazine-1-carboxamide] yielded a Ki of 10 to 100 nM.
With `C[C@@H]1CN(c2cc(F)c(F)c(F)c2)CCN1C(=O)NCCC1CCN(Cc2ccc3c(c2)OCCO3)CC1` [6-9, (2R)-N-{2-[1-(2,3-dihydro-1,4-benzodioxin-6-ylmethyl)piperidin-4-yl]ethyl}-2-methyl-4-(3,4,5-trifluorophenyl)piperazine-1-carboxamide] the Ki was 10 to 100 nM.
In the case of `O=C(NCCC1CCN(Cc2ccccc2)CC1)N1CCN(c2cccc(O)c2)CC1` [8-28, N-[2-(1-benzylpiperidin-4-yl)ethyl]-4-(3-hydroxyphenyl)piperazine-1-carboxamide], the Ki is reported as 100 to 1000 nM.
In the case of `O=C(NCCC1CCN(Cc2ccccc2)CC1)N1CCN(c2cccc(Cl)c2)CC1` [8-11, N-[2-(1-benzylpiperidin-4-yl)ethyl]-4-(3-chlorophenyl)piperazine-1-carboxamide], the Ki is reported as 10 to 100 nM.
`N#Cc1cnc(N2CCN(C(=O)NCCC3CCN(Cc4ccccc4)CC3)[C@@H](CO)C2)nc1` [5-26, (2R)-N-[2-(1-benzylpiperidin-4-yl)ethyl]-4-(5-cyanopyrimidin-2-yl)-2-(hydroxymethyl)piperazine-1-carboxamide] gave a Ki of 100 to 1000 nM.
